Activity data for four compounds are collected here from ChEMBL document CHEMBL1146739, “Alpha,alpha-trehalose derivatives bearing guanidino groups as inhibitors to HIV-1 Tat-TAR RNA interaction in human cells” (Bioorg Med Chem Lett, 2004).

In this experiment the test system is Nucleic Acid. The experiment is described as follows: Inhibitory activity against TatTAR RNA interaction in human cells by Tat-dependent HIV-1 long terminal repeats (LTR)-driven chloramphenicol acetyltransferase assay at 3 uM concentration; decreased from 69.5 to 44.2. It counts as cell-based. Also noted: unit not given here.

For `N=C(N)NCC1OC(OC2OC(CNC(=N)N)C(O)C(O)C2O)C(O)C(O)C1O` (centres undefined), the Activity was found to be 44.2. Next, `N=C(N)NCCCC(=O)NCC1OC(OC2OC(CNC(=O)CCCNC(=N)N)C(O)C(O)C2O)C(O)C(O)C1O` (centres undefined): 44.2; `N=C(N)NCC(=O)NCC1OC(OC2OC(CNC(=O)CNC(=N)N)C(O)C(O)C2O)C(O)C(O)C1O` (centres undefined): 44.2.

As for `NC(N)=NCCCC(N)C(=O)NCC1OC(OC2OC(CNC(=O)C(N)CCCN=C(N)N)C(O)C(O)C2O)C(O)C(O)C1O` (centres undefined), the Activity amounted to 44.2.
